Data from patent US8685970B2, “Quinolines and related analogs as sirtuin modulators” (GlaxoSmithKline, LLC, priority 2008, dated 2014).

target: T1, SIRT1 (Homo sapiens, UniProt Q96EB6); assay: Mass spectrometry based SIRT1 deacetylation assay (activation); type: biochemical; details: 10 nM SIRT1, 0.5 μM peptide substrate, 120 μM βNAD+, 25 min at 25° C.
T1 sequence (Q96EB6 1-747): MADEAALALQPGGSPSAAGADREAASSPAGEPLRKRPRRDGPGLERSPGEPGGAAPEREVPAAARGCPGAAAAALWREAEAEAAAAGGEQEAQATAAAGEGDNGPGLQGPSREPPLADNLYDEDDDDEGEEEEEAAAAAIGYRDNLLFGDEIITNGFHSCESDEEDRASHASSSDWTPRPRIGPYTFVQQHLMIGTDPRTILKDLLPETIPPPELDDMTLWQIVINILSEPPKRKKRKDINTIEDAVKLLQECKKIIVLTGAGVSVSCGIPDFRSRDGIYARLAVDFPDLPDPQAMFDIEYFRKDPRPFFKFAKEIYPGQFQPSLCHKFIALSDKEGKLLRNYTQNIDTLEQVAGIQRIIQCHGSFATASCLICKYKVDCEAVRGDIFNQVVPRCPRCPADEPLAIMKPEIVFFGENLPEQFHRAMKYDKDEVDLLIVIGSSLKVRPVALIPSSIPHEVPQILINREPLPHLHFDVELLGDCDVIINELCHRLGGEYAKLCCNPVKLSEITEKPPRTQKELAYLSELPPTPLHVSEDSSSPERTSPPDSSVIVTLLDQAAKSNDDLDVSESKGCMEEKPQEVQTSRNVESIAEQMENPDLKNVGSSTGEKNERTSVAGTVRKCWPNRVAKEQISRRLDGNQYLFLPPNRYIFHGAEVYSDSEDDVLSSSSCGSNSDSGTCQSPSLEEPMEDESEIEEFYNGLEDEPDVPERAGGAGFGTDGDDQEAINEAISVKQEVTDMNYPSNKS
Excerpt: A mass spectrometry based assay was used to identify modulators of SIRT1 activity. The mass spectrometry based assay utilizes a peptide having 20 amino acid residues as follows: Ac-EE-K (biotin)-GQSTSSHSK (Ac)N1eSTEG-K(5TMR)-EE-NH2 (SEQ ID NO: 1) wherein K(Ac) is an acetylated lysine residue and Nle is a norleucine. The peptide is labeled with the fluorophore 5TMR (excitation 540 nm/emission 580 nm) at the C-terminus. The sequence of the peptide substrate is based on p53 with several modifications. In addition, the methionine residue naturally present in the sequence was replaced with the norleucine because the methionine may be susceptible to oxidation during synthesis and purification.
The mass spectrometry assay is conducted as follows: 0.5 μM peptide substrate and 120 μM βNAD^+ is incubated with 10 nM SIRT1 for 25 minutes at 25° C. in a reaction buffer (50 mM Tris-acetate pH 8, 137 mM NaCl, 2.7 mM KCl, 1 mM MgCl2, 5 mM DTT, 0.05% BSA). Test compounds may be added to the reaction as described above. The SirT1 gene is cloned into a T7-promoter containing vector and transformed into BL21(DE3). After the 25 minute incubation with SIRT1, 10 μL of 10% formic acid is added to stop the reaction. Reactions are sealed and frozen for later mass spec analysis. Determination of the mass of the substrate peptide allows for precise determination of the degree of acetylation (i.e. starting material) as compared to deacetylated peptide (product).
A control for inhibition of sirtuin activity is conducted by adding 1 μL of 500 mM nicotinamide as a negative control at the start of the reaction (e.g., permits determination of maximum sirtuin inhibition). A control for activation of sirtuin activity is conducted using 10 nM of sirtuin protein, with 1 μL of DMSO in place of compound, to determine the amount of deacetylation of the substrate at a given timepoint within the linear range of the assay. This timepoint is the same as that used for test compounds and, within the linear range, the endpoint represents a change in velocity.
For the above assay, SIRT1 protein was expressed and purified as follows. The SirT1 gene was cloned into a T7-promoter containing vector and transformed into BL21(DE3). The protein was expressed by induction with 1 mM IPTG as an N-terminal His-tag fusion protein at 18° C. overnight and harvested at 30,000×g. Cells were lysed with lysozyme in lysis buffer (50 mM Tris-HCl, 2 mM Tris[2-carboxyethyl]phosphine (TCEP), 10 μM ZnCl2, 200 mM NaCl) and further treated with sonication for 10 min for complete lysis. The protein was purified over a Ni-NTA column (Amersham) and fractions containing pure protein were pooled, concentrated and run over a sizing column (Sephadex S200 26/60 global). The peak containing soluble protein was collected and run on an Ion-exchange column (MonoQ). Gradient elution (200 mM-500 mM NaCl) yielded pure protein. This protein was concentrated and dialyzed against dialysis buffer (20 mM Tris-HCl, 2 mM TCEP) overnight. The protein was aliquoted and frozen at −80° C. until further use.
Sirtuin modulating compounds that activated SIRT1 were identified using the assay described above and are shown below in Table 1. The EC1.5 values represent the concentration of test compounds that result in 150% activation of SIRT1. The EC1.5 values for the activating compounds are represented by A (EC1.5<1.0 uM), B (EC1.5 1-25 uM), C (EC1.5>25 uM). The percent maximum fold activation is represented by A (Fold activation >200%) or B (Fold Activation <200%). “NT” indicates the compound was not tested in a particular assay.

Compound | % Fold Act. (percent maximum fold activation) | EC1.5 (concentration of test compound that results in 150% activation of SIRT1)
O=C(Nc1ncc(CN2CCCC2)s1)c1cccc2ccc(-c3cccc(C(F)F)c3)nc12 [Compound 262] | A (Fold activation >200%) | B (EC1.5 1-25 uM)
Cc1cc(-c2ccc3cccc(C(=O)Nc4nccs4)c3n2)ccn1 [Compound 223] | – | C (EC1.5>25 uM)
O=C(Nc1ccncn1)c1cccc2ccc(-c3cccc(N4CCOCC4)c3)nc12 [Compound 111] | A (Fold activation >200%) | A (EC1.5<1.0 uM)
FC(F)(F)c1ccccc1-c1ccc2cccc(NCc3cccnc3)c2n1 [Compound 162] | – | C (EC1.5>25 uM)
O=C(Nc1nncs1)c1cccc2ccc(-c3cccnc3)nc12 [Compound 234] | – | C (EC1.5>25 uM)
Cn1ccc(C(=O)Nc2cccc3ccc(-c4cccnc4)nc23)n1 [Compound 293] | A (Fold activation >200%) | A (EC1.5<1.0 uM)
O=C(Nc1cccnc1)c1cccc2ccc(-c3ccccc3C(F)(F)F)nc12 [Compound 86] | A (Fold activation >200%) | B (EC1.5 1-25 uM)
O=C(Nc1nc(CN2CCCC2)cs1)c1cccc2ccc(-c3cccc(OC(F)(F)F)c3)nc12 [Compound 148] | A (Fold activation >200%) | A (EC1.5<1.0 uM)
O=C(Nc1ncnc2ccc(-c3cccc(OC(F)(F)F)c3)nc12)c1cccc(C(F)(F)F)c1 [Compound 211] | – | C (EC1.5>25 uM)
O=C(Nc1cccc2ccc(-c3cccnc3)nc12)c1cccc(OCCN2CCOCC2)c1 [Compound 317] | A (Fold activation >200%) | B (EC1.5 1-25 uM)
Cc1nc(NC(=O)c2cccc3ccc(-c4cccc(N5CCOCC5)c4)nc23)sc1C [Compound 240] | A (Fold activation >200%) | A (EC1.5<1.0 uM)
O=C(Nc1cccc2ccc(-c3cc(F)cc(F)c3)nc12)c1cscn1 [Compound 78] | – | C (EC1.5>25 uM)
O=C(Nc1nccs1)c1cccc2ccc(-c3ccccc3C(F)(F)F)nc12 [Compound 84] | A (Fold activation >200%) | B (EC1.5 1-25 uM)
CN(C)Cc1cccc(-c2ccc3cccc(NC(=O)c4cscn4)c3n2)c1 [Compound 122] | A (Fold activation >200%) | A (EC1.5<1.0 uM)
O=C(Nc1nc2ccccc2s1)c1cccc2ccc(-c3cccnc3)nc12 [Compound 233] | B (Fold Activation <200%) | B (EC1.5 1-25 uM)
O=C(Nc1cccc(OC2CCNCC2)c1)c1cccc2ccc(-c3cccc(C(F)(F)F)c3)nc12 [Compound 256] | A (Fold activation >200%) | A (EC1.5<1.0 uM)

Compound | % Fold Act. (percent maximum fold activation) | EC1.5 (concentration of test compound that results in 150% activation of SIRT1)
O=C(Nc1cccc2ccc(-c3cccc(C(F)(F)F)c3)nc12)c1cnccn1 [Compound 4] | B (Fold Activation <200%) | A (EC1.5<1.0 uM)
FC(F)(F)c1cccc(-c2ccc3cccc(NCc4nccs4)c3n2)c1 [Compound 137] | – | C (EC1.5>25 uM)
CS(=O)(=O)c1ccc(-c2ccc3cccc(NC(=O)c4cscn4)c3n2)cc1 [Compound 106] | B (Fold Activation <200%) | B (EC1.5 1-25 uM)
O=C(Nc1cccc(CN2CCOCC2)n1)c1cccc2ccc(-c3cccc(C(F)(F)F)c3)nc12 [Compound 228] | A (Fold activation >200%) | A (EC1.5<1.0 uM)
O=C(Nc1nccs1)c1cc(F)cc2ccc(-c3cccc(C(F)(F)F)c3)nc12 [Compound 62] | – | C (EC1.5>25 uM)
O=C(Nc1ccccn1)Nc1cccc2ccc(-c3cccc(OC(F)(F)F)c3)nc12 [Compound 46] | B (Fold Activation <200%) | A (EC1.5<1.0 uM)
O=C(Nc1cccc2ccc(-c3ccc4c(c3)OCO4)nc12)c1cscn1 [Compound 107] | B (Fold Activation <200%) | A (EC1.5<1.0 uM)
O=C(Nc1nccs1)c1cccc2ccc(-c3cccc(OC(F)(F)F)c3)nc12 [Compound 14] | B (Fold Activation <200%) | A (EC1.5<1.0 uM)
O=C(Nc1ccc(CN2CCCC2)cn1)c1cccc2ccc(-c3cccc(C(F)(F)F)c3)nc12 [Compound 285] | A (Fold activation >200%) | A (EC1.5<1.0 uM)
O=C(Nc1ccncn1)c1cccc2ncc(-c3cccc(OC(F)(F)F)c3)nc12 [Compound 128] | – | C (EC1.5>25 uM)
O=C(Nc1cccc2ccc(-c3cncc(F)c3)nc12)c1cscn1 [Compound 199] | – | C (EC1.5>25 uM)
Cc1cc(-c2ccc3cccc(C(=O)Nc4cccnc4)c3n2)no1 [Compound 68] | – | C (EC1.5>25 uM)
CS(=O)(=O)c1cncc(-c2ccc3cccc(NC(=O)c4cscn4)c3n2)c1 [Compound 229] | A (Fold activation >200%) | B (EC1.5 1-25 uM)
O=C(Nc1ncnc2ccc(-c3cccc(OC(F)(F)F)c3)nc12)c1ccc(CN2CCCC2)cc1 [Compound 232] | A (Fold activation >200%) | B (EC1.5 1-25 uM)
O=S(=O)(Nc1cccc2ccc(-c3cccc(OC(F)(F)F)c3)nc12)N1CCNCC1 [Compound 115] | B (Fold Activation <200%) | B (EC1.5 1-25 uM)
O=C(Nc1ccccn1)c1cccc2cnc(-c3cccc(N4CCOCC4)c3)nc12 [Compound 315] | A (Fold activation >200%) | A (EC1.5<1.0 uM)
